This is an account of results in patent US8536160B2, “Azaheterocyclyl derivatives of androstanes and androstenes as medicaments for cardiovascular disorders” (priority 2006, dated 2013).

Where a name gives a salt, the structure may show the parent alone.

The target in the first data set is Dog Kidney Na+, K+-ATPase (Canis lupus familiaris, UniProt P50997). The experiment in a line: Inhibition of the enzymatic activity of purified Na+,K+-ATPase (hydrolysis of 32P-ATP). The data set is classed as biochemical. Conditions: Na+, K+-ATPase Inhibition IC50.
In general, IC50 refers to the concentration that inhibits the measured activity by half. `CC12CCC3C(CC(=O)C4CC(=NOC5CCNC5)CCC43C)C1CCC2=O` (mixture of isomers) [I-ae, (E,Z) 3-[3-(R)-Pyrrolidinyl]oxyiminoandrostane-6,17-dione hydrochloride] had a half-maximal inhibitory concentration (IC50) of 26 nM.

Regarding `CC12CCC3C(CC(=O)C4CC(=NOC5CCNC5)CCC43C)C1CCC2=O` (single isomer, unassigned) [I-ag, hydrochloride], the 50% inhibitory concentration (IC50) amounted to 110 nM.

In turn, `CN1CCC(ON=C2CCC3(C)C(C2)C(=O)CC2C4CCC(=O)C4(C)CCC23)C1` (single isomer, unassigned) [I-ak, hydrochloride] returned an IC50 of 41000 nM.

`CN1CCC(ON=C2CCC3(C)C(C2)C(=O)CC2C4CCC(=O)C4(C)CCC23)C1` (single isomer, unassigned) [I-al] had an IC50 of 1300 nM.

In turn, `CC12CCC3C(CC(O)C4CC(=NOC5CCNC5)CCC43C)C1CCC2=O` (single isomer, unassigned) [I-ao, hydrochloride] returned an IC50 of 2300 nM.

In turn, `CON=C1CC2C3CCC(=O)C3(C)CCC2C2(C)CCC(=NOC3CCNC3)CC12` (single isomer, unassigned) [I-bd, hydrochloride] showed an IC50 of 18 nM.

Molecule `CC12CCC3C(C(=O)CC4CC(=NOC5CCNC5)CCC43C)C1CCC2=O` (single isomer, unassigned) [I-cb] registered an IC50 of 89 nM.

`CC12CCC3C(C(=O)CC4CC(=NOC5CCNC5)CCC43C)C1CCC2=O` (single isomer, unassigned) [I-cc] came in with an IC50 of 570 nM.

For the molecule `CC12CCC3C(C(O)C(CO)C4CC(=NOC5CCNC5)CCC43C)C1CCC2=O` (single isomer, unassigned) [I-dl, hydrochloride], half-maximal inhibition (IC50) was put at 170 nM.

For `C[C@]12CC/C(=N\OC3CCNCC3)CC1C(=O)C[C@@H]1[C@@H]2CC[C@]2(C)C(=O)CC[C@@H]12` (stereo partly drawn) [I-aa, (E) 3-(4-Piperidyl)oxyiminoandrostane-6,17-dione hydrochloride], the IC50 was 4100 nM.

Molecule `C[C@H]1C[C@@H]2[C@H](CC[C@]3(C)C(=O)CC[C@@H]23)[C@@]2(C)CC/C(=N\O[C@@H]3CCNC3)CC12` (stereo partly drawn) [I-aw, (E) 3-[3-(R)-Pyrrolidinyl]oxyimino-6α-methylandrostane-17-one fumarate] displayed an IC50 of 340 nM.

As for `C[C@H]1C[C@@H]2[C@H](CC[C@]3(C)C(=O)CC[C@@H]23)[C@@]2(C)CC/C(=N/O[C@@H]3CCNC3)CC12` (stereo partly drawn) [I-ax, (Z) 3-[3-(R)-Pyrrolidinyl]oxyimino-6α-methylandrostane-17-one hydrochloride], the IC50 stood at 260 nM.

For `C=C1C[C@H]2[C@@H]3CCC(=O)[C@@]3(C)CC[C@@H]2[C@@]2(C)CC/C(=N/O[C@H]3CCNC3)C[C@]12O` [I-bi, (Z) 3-[3′-(S)-Pyrrolidinyl]oxyimino-5α-hydroxy-6-methyleneandrostane-17-one fumarate], the IC50 worked out at 6000 nM.

For `C=C1C[C@H]2[C@@H]3CCC(=O)[C@@]3(C)CC[C@@H]2[C@@]2(C)CC/C(=N\O[C@H]3CCNC3)C[C@]12O` [I-bj, (E) 3-[3′-(S)-Pyrrolidinyl]oxyimino-5α-hydroxy-6-methyleneandrostane-17-one fumarate], the IC50 was determined as 480 nM.

In the case of `C=C1C[C@H]2[C@@H]3CCC(=O)[C@@]3(C)CC[C@@H]2[C@@]2(C)CC/C(=N/O[C@@H]3CCN(C)C3)C[C@]12O` [I-bl, (Z) 3-[3′-(R)-(1-Methyl)pyrrolidinyl]oxyimino-5α-hydroxy-6-methyleneandrostane-17-one fumarate], the IC50 amounted to 92000 nM.

The molecule `C=C1C[C@H]2[C@@H]3CCC(=O)[C@@]3(C)CC[C@@H]2[C@@]2(C)CC/C(=N/O[C@H]3CCN(C)C3)C[C@]12O` [I-bn, (Z) 3-[3′-(S)-(1-Methyl)pyrrolidinyl]oxyimino)-5α-hydroxy-6-methyleneandrostane-17-one fumarate] yielded an IC50 of 95000 nM.

`C=C1C[C@H]2[C@@H]3CCC(=O)[C@@]3(C)CC[C@@H]2[C@@]2(C)CC/C(=N\O[C@H]3CCN(C)C3)C[C@]12O` [I-bo, (E) 3-[3′-(S)-(1-Methyl)pyrrolidinyl]oxyimino)-5α-hydroxy-6-methyleneandrostane-17-one fumarate]: the IC50 was determined as 21000 nM.

`CC1CC2CC(=NOC3CCNC3)CCC2(C)C2CCC3(C)C(=O)CCC3C12` [I-cm, (E) 3-[3′-(R)-Pyrrolidinyl]oxyimino-7β-methylandrostane-17-one hydrochloride] gave an IC50 of 140 nM.

`CC1CC2CC(=NOC3CCNC3)CCC2(C)C2CCC3(C)C(=O)CCC3C12` [I-cn, (Z) 3-[3′-(R)-Pyrrolidinyl]oxyimino-7β-methylandrostane-17-one hydrochloride] came in with an IC50 of 340 nM.

`C[C@]12CC[C@H](OC(=O)C3CCNCC3)CC1C(=O)C[C@@H]1[C@@H]2CC[C@]2(C)C(=O)CC[C@@H]12` (stereo partly drawn) [I-cw, 3β-(4-Piperidinylcarbonyloxy)androstane-6,17-dione hydrochloride] gave an IC50 of 11000 nM.

As to `C[C@]12CC[C@H](OC(=O)C3CNC3)CC1C(=O)C[C@@H]1[C@@H]2CC[C@]2(C)C(=O)CC[C@@H]12` (stereo partly drawn) [I-cx, 3β-(3-Azetidincarbonyloxy)androstane-6,17-dione hydrochloride], the midpoint of inhibition, the IC50, lay at 4200 nM.

In turn, `C[C@]12CC[C@@H](/C=C\[C@@H]3CCNC3)CC1C(=O)C[C@@H]1[C@@H]2CC[C@]2(C)C(=O)CC[C@@H]12` (stereo partly drawn) [I-de, 3α-[2-(Pyrrolidin-3-(S)-yl)-(Z)-vinyl]androstane-6,17-dione formate] came in with an IC50 of 390 nM.

The molecule `C[C@]12CC/C(=N/O[C@H]3CCNC3)CC1[C@@H](CO)C(=O)[C@@H]1[C@@H]2CC[C@]2(C)C(=O)CC[C@@H]12` (stereo partly drawn) [I-di, (Z)-3-[3-(S)-Pyrrolidinyl)oxyimino]-6α-hydroxymethylandrostane-7,17-dione fumarate] registered a concentration for half-maximal inhibition (IC50) of 210 nM.

The data set is the same for the next values; noted with them: Na+, K+-ATPase Inhibition IC50, dog kidney enzyme; hydrolysis of 32P-ATP in presence and absence of compound.
`C[C@]12CC/C(=N\O[C@H]3CCNC3)CC1[C@@H](CO)C(=O)[C@@H]1[C@@H]2CC[C@]2(C)C(=O)CC[C@@H]12` (stereo partly drawn) [I-dj, (E)-3-[3-(S)-Pyrrolidinyl)oxyimino]-6α-hydroxymethylandrostane-7,17-dione fumarate]: it took 36 nM to reach half-maximal inhibition (IC50).

Staying with this data set, now noted: dog kidney enzyme; hydrolysis of 32P-ATP in presence and absence of compound; read-out: Na+, K+-ATPase Inhibition IC50.
With `CON=C1CC2C3CCC(=O)C3(C)CCC2C2(C)CCC(=NOC3CCNC3)CC12O` (single isomer, unassigned) [I-bv], the IC50 worked out at 150 nM.

For `CON=C1CC2C3CCC(=O)C3(C)CCC2C2(C)CCC(=NOC3CCN(C)C3)CC12O` (single isomer, unassigned) [I-ca], the IC50 turned out to be 6000 nM.

Take `CO/N=C1\C[C@H]2[C@@H]3CCC(=O)[C@@]3(C)CC[C@@H]2[C@@]2(C)CC/C(=N/O[C@H]3CCN(C)C3)C[C@]12O` [I-bx, (Z) 3-[3′-(S)-(1-Methyl)pyrrolidinyl]oxyimino)-5α-hydroxy-6-(E)-methoxyiminoandrostane-17-one fumarate]: the IC50 stood at 96000 nM.

Consider `CO/N=C1\C[C@H]2[C@@H]3CCC(=O)[C@@]3(C)CC[C@@H]2[C@@]2(C)CC/C(=N\O[C@H]3CCN(C)C3)C[C@]12O` [I-by, (E) 3-[3′(S)-(1-Methyl)-pyrrolidinyl]oxyimino)-5α-hydroxy-6-(E)-methoxyiminoandrostane-17-one fumarate], for which the IC50 stood at 12000 nM.

As to `CO/N=C1\C[C@H]2[C@@H]3CCC(=O)[C@@]3(C)CC[C@@H]2[C@@]2(C)CC/C(=N/O[C@@H]3CCN(C)C3)C[C@]12O` [I-bz, (Z) 3-[3′-(R)-(1-Methyl)pyrrolidinyl]oxyimino)-5α-hydroxy-6-(E)-methoxyiminoandrostane-17-one fumarate], the IC50 was determined as 94000 nM.

As for `CC12CCC3C(CC(=O)C4CC(C=CC5CCNCC5)CCC43C)C1CCC2=O` (stereo not drawn) [I-dg, 3α-[2-(Pyperidin-4-yl)-(Z)-vinyl]androstane-6,17-dione formate], the IC50 came out at 890 nM.

The data set is the same for the next values; noted with them: read-out: Na+, K+-ATPase Inhibition IC50.
For `C=C1C[C@H]2[C@@H]3CCC(=O)[C@@]3(C)CC[C@@H]2[C@@]2(C)CC/C(=N\O[C@@H]3CCN(C)C3)C[C@]12O` [I-bm, (E) 3-[3′-(R)-(1-Methyl)-pyrrolidinyl]oxyimino-5α-hydroxy-6-methyleneandrostane-17-one fumarate], the IC50 stood at 1400 nM.

As for `C[C@@H]1CC2CC(=NO[C@@H]3CCNC3)CC[C@]2(C)[C@H]2CC[C@]3(C)C(=O)CC[C@H]3[C@H]12` (stereo partly drawn) [I-ck, (E,Z) 3-[3′-(R)-Pyrrolidinyl]oxyimino-7α-methylandrostane-17-one hydrochloride], the IC50 stood at 210 nM.

Take `COC(=O)[C@@H]1CC2C/C(=N/O[C@@H]3CCNC3)CC[C@]2(C)[C@H]2CC[C@]3(C)C(=O)CC[C@H]3[C@H]12` (stereo partly drawn) [I-cq, (E) 3-[3′-(R)-Pyrrolidinyl]oxyimino-7α-methoxycarbonylandrostane-17-one hydrochloride]: the concentration for half-maximal inhibition (IC50) came out at 960 nM.

Turning to `CN1CC[C@H](O/N=C2\CC[C@@]3(C)C(C2)[C@@H](CO)C(=O)[C@@H]2[C@@H]3CC[C@]3(C)C(=O)CC[C@@H]23)C1` (stereo partly drawn) [I-cu, (E,Z) 3-[3′-(S)-(1-Methyl)-pyrrolidinyl]oxyimino-6α-hydroxymethylandrostane-7,17-dione fumarate], the IC50 amounted to 2600 nM.

As to `C[C@]12CCC(=NO[C@H]3CCNC3)C=C1/C(=N/O)C[C@@H]1[C@@H]2CC[C@]2(C)C(=O)CC[C@@H]12` [I-dv, (E,Z) 3-[3-(S)-Pyrrolidinyl]oxyimino-6-(E)-hydroxyiminoandrost-4-ene-17-one fumarate], the IC50 amounted to 220 nM.

In the case of “(E) 3-[3-(R)-Pyrrolidinyl]oxyiminoandrostane-6,7-dione hydrochloride [I-af]”, the IC50 came to 16 nM.

The next data set has as its system anesthetized guinea-pig. Put plainly: Inotropic effect and lethal dose, slow intravenous infusion in anesthetized guinea-pig. Conditions: Cavia porcellus, iv, 1.5 h; slow i.v. infusion over 90 minutes, anesthetized guinea-pig; maximum increase in contractile force; read-out: Emax % increase in +dP/dTmax. It is filed as in vivo. Details: Maximum dose infused: unit not given here.
As for `CC12CCC3C(CC(=O)C4CC(=NOC5CCNC5)CCC43C)C1CCC2=O` (mixture of isomers) [I-ae, (E,Z) 3-[3-(R)-Pyrrolidinyl]oxyiminoandrostane-6,17-dione hydrochloride], the Emax turned out to be 147%.

Staying with this data set, now noted: Cavia porcellus, iv, 1.5 h; slow i.v. infusion over 90 minutes, anesthetized guinea-pig; read-out: ED80 (inotropic potency, dose increasing +dP/dTmax by 80%).
Regarding `CC12CCC3C(CC(=O)C4CC(=NOC5CCNC5)CCC43C)C1CCC2=O` (mixture of isomers) [I-ae, (E,Z) 3-[3-(R)-Pyrrolidinyl]oxyiminoandrostane-6,17-dione hydrochloride], the ED80 was determined as 2.28 µmol/kg.

Still in this data set, the particulars now being: Cavia porcellus, iv, 1.5 h; slow i.v. infusion over 90 minutes, anesthetized guinea-pig; read-out: EDmax (dose inducing maximum positive inotropic effect).
With `CC12CCC3C(CC(=O)C4CC(=NOC5CCNC5)CCC43C)C1CCC2=O` (mixture of isomers) [I-ae, (E,Z) 3-[3-(R)-Pyrrolidinyl]oxyiminoandrostane-6,17-dione hydrochloride], the ED (max) stood at 4.26 µmol/kg.

The data set is the same for the next values; noted with them: duration of the inotropic effect; anesthetized guinea-pig.
`CC12CCC3C(CC(=O)C4CC(=NOC5CCNC5)CCC43C)C1CCC2=O` (mixture of isomers) [I-ae, (E,Z) 3-[3-(R)-Pyrrolidinyl]oxyiminoandrostane-6,17-dione hydrochloride]: the “% decrease from Emax after 20 min from the end of the infusion” value is on record as 74%.

Staying with this data set, now noted: slow i.v. infusion over 90 minutes, anesthetized guinea-pig.
As for `CC12CCC3C(CC(=O)C4CC(=NOC5CCNC5)CCC43C)C1CCC2=O` (mixture of isomers) [I-ae, (E,Z) 3-[3-(R)-Pyrrolidinyl]oxyiminoandrostane-6,17-dione hydrochloride], the Dead/treated is on record as 0/3.

The same data set, now with this note: slow i.v. infusion over 90 minutes; maximum dose infused in the survived animals.
As for `CC12CCC3C(CC(=O)C4CC(=NOC5CCNC5)CCC43C)C1CCC2=O` (mixture of isomers) [I-ae, (E,Z) 3-[3-(R)-Pyrrolidinyl]oxyiminoandrostane-6,17-dione hydrochloride], the Maximum dose infused is 6.4.
